We go through 17 molecules from patent US11753407B2, “Compounds for treating spinal muscular atrophy” (PTC Therapeutics, Inc., priority 2012, dated 2023).

Data set [1] concerns SMN2 minigene mRNA (SMN2-A minigene) in HEK293H cells. The experiment in a line: SMN2 minigene mRNA splicing RT-qPCR assay in cultured cells. In kind it is cell-based, human. The settings on record: Homo sapiens, HEK293-H; concentration increasing full length SMN2 mRNA 1.5-fold relative to vehicle-treated cells; HEK293H cells with SMN2-A minigene, 24 hours, 7-point concentration data; read-out: EC1.5x for production of full length SMN2 mRNA. The essentials:
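Stable SMN2-A minigene HEK293H; cpd 7-pt 3.16-fold series, 200× in DMSO, 24 h, 37 °C, n=2. Lysates → multiplex RT-qPCR (minigene FL + GAPDH), efficiency-corrected ΔΔCt vs vehicle. EC1.5× = 1.5-fold FL mRNA gain.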
On the technique in general: In qPCR the cycle at which signal appears reflects the starting amount.

Data set [2] relates to Smn protein in SMA patient fibroblast cells (GM03813). Nature of the data set: Smn protein assay in cultured cells (SMN HTRF). It is filed as cell-based, human. The settings on record: SMA patient fibroblast cells, 48 hours; for EC1.5x for Smn protein expression: 7-point concentration curve, SMN HTRF, concentration producing 1.5 times Smn protein vs DMSO vehicle control; for maximum fold (Fold) increase of Smn protein: 7-point concentration data, fold relative to vehicle control. The essentials:
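Fibroblasts, SMA patient; 5,000 cells/well; 7-pt curve, 3.16-fold serial dilution; 48 h, 37 °C, 5% CO2; RIPA lysis 1 h RT; anti-SMN d2 + kryptate overnight RT; HTRF 665/620 nm; fold vs DMSO; EC1.5×, max fold.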
Background: TR-FRET usually uses a lanthanide donor and a delayed reading to cut background.

The melting point is the temperature of the solid-liquid transition. `Cc1cn2cc(-c3cc(=O)n4cc(C5=CCN(C(C)C)CC5)ccc4n3)ccc2n1` [Compound 565, 2-(2-methylimidazo[1,2-a]pyridin-6-yl)-7-[1-(propan-2-yl)-1,2,3,6-tetrahydropyridin-4-yl]-4H-pyrido[1,2-a]pyrimidin-4-one]: the melting point fell in the range of 230 to 232 °C. For the same molecule, in data set [1], the EC (1.5-fold increase) is under 0.1 µM. In data set [2], the “EC1.5x for Smn protein expression” value was “*** (an EC1.5× between >0.3 μM and ≤1 μM is indicated by three stars (***))”; the “maximum fold (Fold) increase of Smn protein” value (“maximum fold (Fold) increase” for short) is “**** (a fold increase between >1.5 and ≤1.65 is indicated by four stars (****))”.

Take `COc1cccc(-c2cc(=O)n3cc(N4CCN(C)CC4)ccc3n2)c1` [Compound 23, 2-(3-methoxyphenyl)-7-(4-methylpiperazin-1-yl)-4H-pyrido[1,2-a]pyrimidin-4-one]: the melting point was 173 to 175 °C. Moreover, the EC (1.5-fold increase) in data set [1] was in the range of 3 to 30 µM. In addition, the “maximum fold (Fold) increase” value in data set [2] was “*** (a fold increase between >1.35 and ≤1.5 is indicated by three stars (***))”.

`C[C@H]1CN(c2ccc3nc(-c4cc(F)cc(F)c4)cc(=O)n3c2)CCN1` [Compound 105, 2-(3,5-difluorophenyl)-7-[(3S)-3-methylpiperazin-1-yl]-4H-pyrido[1,2-a]pyrimidin-4-one]: the melting point is 189 to 194 °C. Moreover, the EC (1.5-fold increase) in data set [1] was in the range of 0.1 to 0.3 µM. Also, in data set [2], the “EC1.5x for Smn protein expression” value is “*** (an EC1.5× between >0.3 μM and ≤1 μM is indicated by three stars (***))”; the “maximum fold (Fold) increase” value is “**** (a fold increase between >1.5 and ≤1.65 is indicated by four stars (****))”.

Regarding `COc1ccc(-c2cc(=O)n3cc(N4CCCN(C)CC4)ccc3n2)cc1` [Compound 16, 2-(4-methoxyphenyl)-7-(4-methyl-1,4-diazepan-1-yl)-4H-pyrido[1,2-a]pyrimidin-4-one], the melting point was 137 to 141 °C. For the same molecule, in data set [1], the EC (1.5-fold increase) fell in the range of 1 to 3 µM. For the same molecule, in data set [2], the “maximum fold (Fold) increase” value was “* (A maximum fold increase of ≤1.2 is indicated by one star (*))”.

In turn, `COc1cc(-c2cc(=O)n3cc(N4CCNCC4)ccc3n2)cc(F)c1F` [Compound 218, 2-(3,4-difluoro-5-methoxyphenyl)-7-(piperazin-1-yl)-4H-pyrido[1,2-a]pyrimidin-4-one] displayed a melting point of 155 to 160 °C. Besides, the EC (1.5-fold increase) in data set [1] lay within 0.1 to 0.3 µM. In data set [2], the “EC1.5x for Smn protein expression” value is “** (an EC1.5× between >1 μM and ≤3 μM is indicated by two stars (**))”; the “maximum fold (Fold) increase” value is “*** (a fold increase between >1.35 and ≤1.5 is indicated by three stars (***))”.

`COc1ccc(-c2cc(=O)n3cc(N4CCN[C@H](C)C4)ccc3n2)cc1` [Compound 3, 2-(4-methoxyphenyl)-7-[(3R)-3-methylpiperazin-1-yl]-4H-pyrido[1,2-a]pyrimidin-4-one]: the melting point fell in the range of 152 to 154 °C. Also, in data set [1], the EC (1.5-fold increase) is 0.3 to 1 µM. Further, in data set [2], the “EC1.5x for Smn protein expression” value is “** (an EC1.5× between >1 μM and ≤3 μM is indicated by two stars (**))”; the “maximum fold (Fold) increase” value is “*** (a fold increase between >1.35 and ≤1.5 is indicated by three stars (***))”.

Molecule `C[C@H]1CN(c2ccc3nc(-c4cc(F)cc(C#N)c4)cc(=O)n3c2)CCN1` [Compound 230, 3-fluoro-5-{7-[(3S)-3-methylpiperazin-1-yl]-4-oxo-4H-pyrido[1,2-a]pyrimidin-2-yl}benzonitrile] registered a melting point of 185 to 188 °C. Also, in data set [1], the EC (1.5-fold increase) was 0.3 to 1 µM. In data set [2], the “EC1.5x for Smn protein expression” value is “** (an EC1.5× between >1 μM and ≤3 μM is indicated by two stars (**))”; the “maximum fold (Fold) increase” value is “**** (a fold increase between >1.5 and ≤1.65 is indicated by four stars (****))”.

As to `COc1ccc(-c2cc(=O)n3cc(C4=CCNCC4)cc(C)c3n2)cc1F` [Compound 312, 2-(3-fluoro-4-methoxyphenyl)-9-methyl-7-(1,2,3,6-tetrahydropyridin-4-yl)-4H-pyrido[1,2-a]pyrimidin-4-one], the melting point was 211 to 215 °C. The EC (1.5-fold increase) in data set [1] was under 0.1 µM. For the same molecule, in data set [2], the “EC1.5x for Smn protein expression” value is on record as “**** (an EC1.5x≤0.3 μM is indicated by four stars (****))”; the “maximum fold (Fold) increase” value is “**** (a fold increase between >1.5 and ≤1.65 is indicated by four stars (****))”.

The molecule `CCCc1nc(C)cn2nc(-c3cc(=O)n4cc(N5CCN(CCO)CC5)ccc4n3)cc12` [Compound 726, 7-[4-(2-hydroxyethyl)piperazin-1-yl]-2-(6-methyl-4-propylpyrazolo[1,5-a]pyrazin-2-yl)-4H-pyrido[1,2-a]pyrimidin-4-one] yielded a melting point of 225 to 227 °C. The EC (1.5-fold increase) in data set [1] fell in the range of 0.3 to 1 µM. In data set [2], the “EC1.5x for Smn protein expression” value is “** (an EC1.5× between >1 μM and ≤3 μM is indicated by two stars (**))”; the “maximum fold (Fold) increase” value was “**** (a fold increase between >1.5 and ≤1.65 is indicated by four stars (****))”.

`COc1ccc(-c2cc(=O)n3cc(N4CCN[C@@H](C)C4)cc(C)c3n2)cc1OC` [Compound 142, 2-(3,4-dimethoxyphenyl)-9-methyl-7-[(3S)-3-methylpiperazin-1-yl]-4H-pyrido[1,2-a]pyrimidin-4-one]: the melting point lay in the range of 176 to 182 °C. Further, the EC (1.5-fold increase) in data set [1] is 0.3 to 1 µM. In addition, in data set [2], the “maximum fold (Fold) increase” value was “*** (a fold increase between >1.35 and ≤1.5 is indicated by three stars (***))”.

The molecule `CCCNC1CCN(c2cc(C)c3nc(-c4cc5c(C)nc(C)cn5n4)cc(=O)n3c2)CC1` [Compound 583, 2-(4,6-dimethylpyrazolo[1,5-a]pyrazin-2-yl)-9-methyl-7-[4-(propylamino)piperidin-1-yl]-4H-pyrido[1,2-a]pyrimidin-4-one] displayed a melting point of 231 to 241 °C. In data set [1], the EC (1.5-fold increase) is under 0.1 µM. Moreover, in data set [2], the “EC1.5x for Smn protein expression” value is recorded as “**** (an EC1.5x≤0.3 μM is indicated by four stars (****))” and the “maximum fold (Fold) increase” value is “***** (a fold increase >1.65 is indicated by five stars (*****))”.

Molecule `O=c1cc(-c2ccc3c(c2)OCCO3)nc2ccc(N3CCNCC3)cn12` [Compound 31, 2-(2,3-dihydro-1,4-benzodioxin-6-yl)-7-(piperazin-1-yl)-4H-pyrido[1,2-a]pyrimidin-4-one] yielded a melting point of 230 to 232 °C. Also, the EC (1.5-fold increase) in data set [1] lay within 1 to 3 µM. In addition, the “maximum fold (Fold) increase” value in data set [2] was “* (A maximum fold increase of ≤1.2 is indicated by one star (*))”.

For `Cc1cn2nc(-c3cc(=O)n4cc(N5CC(N6CCCCC6)C5)ccc4n3)cc2c(C)n1` [Compound 765, 2-(4,6-dimethylpyrazolo[1,5-a]pyrazin-2-yl)-7-[3-(piperidin-1-yl)azetidin-1-yl]-4H-pyrido[1,2-a]pyrimidin-4-one], the melting point was 220 to 223 °C. Also, the EC (1.5-fold increase) in data set [1] lay in the range of 1 to 3 µM. Further, in data set [2], the “EC1.5x for Smn protein expression” value is “** (an EC1.5× between >1 μM and ≤3 μM is indicated by two stars (**))”; the “maximum fold (Fold) increase” value was “**** (a fold increase between >1.5 and ≤1.65 is indicated by four stars (****))”.

In turn, `Cc1cn2nc(-c3cc(=O)n4cc(N5CCN(C)[C@H](C)C5)ccc4n3)cc2c(C)n1` [Compound 397, 7-[(3R)-3,4-dimethylpiperazin-1-yl]-2-(4,6-dimethylpyrazolo[1,5-a]pyrazin-2-yl)-4H-pyrido[1,2-a]pyrimidin-4-one] registered a melting point of 247 to 249 °C. Besides, the EC (1.5-fold increase) in data set [1] was under 0.1 µM. Moreover, in data set [2], the “EC1.5x for Smn protein expression” value is reported as “**** (an EC1.5x≤0.3 μM is indicated by four stars (****))” and the “maximum fold (Fold) increase” value was “***** (a fold increase >1.65 is indicated by five stars (*****))”.

Molecule `Cc1cn2cc(-c3cc(=O)n4cc(N5CCN(C(C)C)[C@H](C)C5)ccc4n3)cc2c(C)n1` [Compound 730, 2-(1,3-dimethylpyrrolo[1,2-a]pyrazin-7-yl)-7-[(3R)-3-methyl-4-(propan-2-yl)piperazin-1-yl]-4H-pyrido[1,2-a]pyrimidin-4-one] displayed a melting point of 249 to 251 °C. In data set [1], the EC (1.5-fold increase) is under 0.1 µM. Further, in data set [2], the “EC1.5x for Smn protein expression” value is given as “**** (an EC1.5x≤0.3 μM is indicated by four stars (****))” and the “maximum fold (Fold) increase” value is “***** (a fold increase >1.65 is indicated by five stars (*****))”.

As to `COc1ccc(-c2cc(=O)n3cc(N4CCNCC4)ccc3c2)cc1F` [Compound 103, 2-(3-fluoro-4-methoxyphenyl)-7-(piperazin-1-yl)-4H-quinolizin-4-one], the melting point lay within 200 to 202 °C. The EC (1.5-fold increase) in data set [1] was in the range of 0.3 to 1 µM. Also, in data set [2], the “maximum fold (Fold) increase” value is “*** (a fold increase between >1.35 and ≤1.5 is indicated by three stars (***))”.

`Cc1cn2nc(-c3cc(=O)n4cc(N5CCN[C@@H](C)C5)cc(C)c4n3)cc2c(C)n1` [Compound 561, 2-(4,6-dimethylpyrazolo[1,5-a]pyrazin-2-yl)-9-methyl-7-[(3S)-3-methylpiperazin-1-yl]-4H-pyrido[1,2-a]pyrimidin-4-one] gave a melting point of 210 to 219 °C. Moreover, the EC (1.5-fold increase) in data set [1] was under 0.1 µM. In data set [2], the “EC1.5x for Smn protein expression” value is “**** (an EC1.5x≤0.3 μM is indicated by four stars (****))”; the “maximum fold (Fold) increase” value is “**** (a fold increase between >1.5 and ≤1.65 is indicated by four stars (****))”.
